In this assay the target is T1, MTH1 (Homo sapiens, UniProt P36639).
T1 construct: Human MTH1 full length protein purchased from Abcam (Cambridge, USA); purchased Abcam
Briefly: MTH1 inhibitor IC50 determination by two-tube OGAL probe assay. Format: biochemical. The note with it: 40 μM OGAL, read-out: apparent IC50.

From patent US20190100553A1, “DIRECT ACTIVITY ASSAYS AND COMPOSITIONS FOR NUCLEOTIDE POOL SANITIZING ENZYMES” (priority 2016, published 2019) come the findings set out here.

Structures are written as SMILES.

Procedure: Inhibitory concentration (IC50) values were determined by the two-tube OGAL probe assay. The reaction buffer contained: 50 mM NaCl, 10 mM Tris-HCl (pH 7.9), 10 mM MgCl2, 1 mM DTT, 40 μM OGAL nucleotides, and varied concentrations of inhibitors. After 15 min incubation at 30° C., 5 μL of this reaction solution was added to 95 μL luciferase reaction solution in a 96 well plate to measure ATP signals. All the reactions were performed as three replicates. The IC50 was calculated using GraphPad Prism software.

With `Nc1ncnc2c1c(-c1cccc(OCc3ccccc3)c1)cn2C1CC(CN2CCC2)C1` (stereo not shown) [NVP-AEW541], the 50% inhibitory concentration (IC50) is 1900 nM.
